Source: patent US4513007A, “Method for treating heart disease” (priority 1983, dated 1985)

Columns and labels:
[1] = test system: cardiac arrhythmia in dogs; assay: cardiac arrhythmia in dogs induced by electrical stimulation (third study); type: in vivo, mongrel dogs; settings: 4 hours of stimulation (>180 beats/minute); 50-75 mg/kg i.v. bolus; untreated: tachyarrhythmia bursts, extrasystoles
Protocol: III. In a third study it was evaluated the effect of calcium dobesilate on cardiac arrhythmia in dogs induced by electrical stimulation, to produce EKG changes and cardiac lymphostasis similar to those observed in sick sinus syndrome in man (4,5). […] The other three dogs served as controls. EKG records were made 4 hours later in all animal.

microvessels = settings: cited from earlier work
[2] = test system: patients with fresh myocardial infarction; type: in vivo, human (patients)
Protocol: V. A preliminary clinical study was conducted on 100 patients with fresh myocardial infarction who had to fulfill the following criteria for admission: typical history of chest pain, with onset of less than six hours duration and having anterior or anteroseptal transmural myocardial infarction evidenced by 12 leads EKG criteria. 50 patients received the usual conventional drugs advocated in the hospital where the study was undertaken (potent analgesic, nitroglycerin, diuretics, lidocain, digitalis) and served as a comparison or control group. The other 50 patients received the conventional drugs and in addition calcium dobesilate which was given as follows: 100 mg/kg of calcium dobesilate by i.v. perfusion in 300 ml glucose, on admission 50-100 mg/kg of calcium dobesilate by i.v. perfusion in 300 ml glucose every hour during the subsequent 3 hours 25 mg/kg of calcium dobesilate by i.v. perfusion in 300 ml glucose every 6 hours until the 3rd-4th day after admission The treatment was then continued, by giving 500-1,000 mg of calcium dobesilate orally thrice daily.

[3] = test system: dogs with experimental myocardial infarction; assay: electrocardiographic tracings in dogs after coronary artery ligation (second study); type: in vivo, mongrel dogs; settings: group III treated dogs, 360 min, 100 mg/kg i.v.
Protocol: In 7 dogs the coronary artery was occluded and lymphangiography was performed post-mortem 30 minutes after the occlusion (group II). In 6 other dogs the coronary artery was occluded and lymphangiography was performed 360 minutes after coronary artery occlusion (group III). An additional 12 dogs were treated with CLS 2210 (calcium dobesilate) in a single dose of 100 mg/kg by intravenous infusion immediately after coronary artery occlusion. In 6 of these dogs, post-mortem lymphangiography was performed 30 minutes following coronary artery occlusion (group II), and in the other 6 it was performed 360 minutes after occlusion (group III).

[4] = test system: infarct size, left ventricle; type: in vivo, mongrel dogs
Protocol: IV. In a fourth study the influence of calcium dobesilate on infarct size was evaluated by the double-blind technique. The study was performed in 14 mongrel dogs of either gender weighing about 23-25 kg.
Anesthesia was induced and maintained with sodium pentobarbital (30 mg/kg) and ventilation was maintained through an endotracheal tube with a Harvard respirator providing 200-300 cc of room air/breath at a rate of 18-20/minute.
Coronary artery occlusion in all dogs was obtained by ligation of the LAD just distal to the first septal branch.
The left circumflex artery (LCC) was not ligated and its territory being non-infarcted was used as a control. After ligation of the LAD artery the chest was closed. Calcium dobesilate or the placebo were administered by intravenous perfusion during 7 days according to the following schedule:
0-1 hour after LAD ligation 100 mg/kg i.v. in 100 ml saline
2-3 hours after LAD ligation 100 mg/kg i.v. in 100 ml saline
4-6 hours after LAD ligation 75 mg/kg i.v. in 100 ml saline
7-12 hours after LAD ligation 50 mg/kg i.v. in 100 ml saline
13-24 hours after LAD ligation 50 mg/kg i.v. in 100 ml saline
2-5 days after LAD ligation 3 × 50 mg/kg i.v. in 50 ml saline
6-7 days after LAD ligation 3 × 25 mg/kg i.v. in 50 ml
After 7 days the animals were killed and the hearts were sliced in sections of 1 cm (from the apex to the base). The infarcted and non-infarcted zones of the left ventricle were planimetered to evaluate the infarct size in % in relation to the whole left ventricle. Then the infarcted and non infarcted zones were weighed to determine the size of the infarcted zone in grams in relation to the size of the whole left ventricle.

cardiac lymphatics [5] = assay: post-mortem cardiac lymphangiography in normal dog hearts (first study); type: in vivo, mongrel dogs; settings: normal myocardium; for No of lymphatics per cm^2 / Equivalence to ventricular surface: 6 h after i.v., Hyaluronidase 500 I.U./kg, calcium dobesilate 50-100 mg/kg; for No of lymphatics per cm^2: controls 1.64 ± 0.11, P <0.001 in relation to control; for Equivalence to ventricular surface: controls 6.6%, P <0.001
Protocol: I. In a first study the effect of calcium dobesilate was compared to Hyaluronidase on the visualization of cardiac lymphatics in normal dog hearts (not infarcted). 18 healthy mongrel dogs of either gender were divided into 3 groups each of 6 animals. […] The dogs in the second group received an intravenous injection of Hyaluronidase (500 I.U./kg) and those of the third group received an i.v. injection of calcium dobesilate (50-100 mg/kg). Post-mortem cardiac lymphangiography was performed after killing the animals and extracting the hearts 6 hours after the administration of either product. The results of the 2 groups were compared to that of the controls. The technique of cardiac lymphangiography used was that described by Szlavy L., Adams D., Hollenberg N. K. and Abrams H., published in the American Heart Journal, Vol. 100, Nr. 3, pp 323-331, Sept. 1980 (8). The technique consisted in injecting a contrast agent (30 g barium sulphate+2-5 ml of Iodamid 420) into the superficial lymphatic vessels of the heart using a Becton-Dickinson lymphangiography set. The contrast agent was injected under gentle manual pressure until the lymphatic vessels in the left ventricle were filled (multiple injections starting from the apex to the base of the heart). The heart was then X-rayed with 5-fold magnification using a 0,1 mm focal spot X-raytube and with exposure factors of 50 KV, 0,01 second and 30 mA. With this technique it was possible to visualize the 40-80 microns lymphatic vessels. A grid was applied on the lymphangiograms which consisted of lines drawn at right angles, 1 cm apart. Each 5×5 cm^2 served as a single unit as it corresponded to 1 cm^2 of the left ventricular myocardium (5-fold magnification was used for filming). A point was counted whenever a crossing coincided with a visualized lymph vessel in the lymphangiogram. In this way a quantitative index was obtained based on the number of lymph vessels/cm^2 or to the percent of the left ventricular surface area.

cardiac lymphatics [6] = assay: cardiac lymphangiography in normal dogs and dogs with LAD coronary artery ligation (second study); type: in vivo, mongrel dogs; settings: 100 mg/kg i.v.
Protocol: II. The second study was performed to evaluate the influence of calcium dobesilate on the visualization of the lymphatic vessels in the infarcted and non-infarcted zones after ligation of the left anterior descending (LAD) coronary artery in 37 mongrel dogs. In 6 dogs the coronary artery was not occluded (group I). […] Therefore a larger control series was not required. In 6 normal dogs CLS 2210 (calcium dobesilate) was administered in a single dose of 100 mg/kg by intravenous infusion in 100 ml of physiological saline or glucose. Six hours after administration of CLS 2210 (calcium dobesilate) the dogs were killed and cardiac lymphangiography was performed post-mortem (group I) as described above (8). In 7 dogs the coronary artery was occluded and lymphangiography was performed post-mortem 30 minutes after the occlusion (group II). In 6 other dogs the coronary artery was occluded and lymphangiography was performed 360 minutes after coronary artery occlusion (group III). An additional 12 dogs were treated with CLS 2210 (calcium dobesilate) in a single dose of 100 mg/kg by intravenous infusion immediately after coronary artery occlusion. In 6 of these dogs, post-mortem lymphangiography was performed 30 minutes following coronary artery occlusion (group II), and in the other 6 it was performed 360 minutes after occlusion (group III). The infarcted zone of myocardium was identified in vivo by direct inspection after coronary artery occlusion according to the usual indices, including color change and disordered contraction. […] Both the infarcted (LAD) and non-infarcted zones (the non-[…] zone was the region of the left circumflex coronary artery or LCC) were evaluated, the non-infarcted zone serving for comparison. Mean values were presented with the standard error of the mean as the index of dispersion. Statistical analysis was done, where appropriate, with the student t-test or by non-parametric methods in the form of the Wilcoxon ranks sum test or Fisher's s exact test. The null hyothesis was rejected when p was less than 0,05.

acute toxicity study = settings: in vivo, mice and rats
cardiac lymphatics [7] = assay: cardiac lymphangiography in normal dogs and dogs with LAD coronary artery ligation (second study); type: in vivo, mongrel dogs; settings: intravenous infusion, dogs
rabbit ear = settings: Roskam's method; U.S. Pat. No. 3,509,207; cited from earlier work
[8] = test system: dogs with coronary occlusion; settings: cited from earlier work
[9] = test system: patients with acute anterior myocardial infarction; settings: intravenous; cited from earlier work
[10] = compared to controls (FIGS. 1-3)

## O=S(=O)(O)c1cc(O)ccc1O [calcium dobesilate, calcium 2,5-dihydroxybenzenesulfonate]
[1]
  EKG tracings after rapid electrical stimulation: practically normal EKG tracings
microvessels
  anti-oedema effect: anti-oedema
  capillary fragility and permeability: reducing
  viscosity lowering effect: viscosity lowering effect
[2]; EKG tracings, compared to controls
  precordial ST-segment elevation: rapid and much greater decrease
[2]; compared to control group, i.v. then oral, added to conventional drugs
  consumption of conventional drugs (analgesic, nitroglycerin, diuretic, lidocain and digitalis): considerably reduced
[2]; compared to controls
  chest pain: much less
[2]; [10]
  serum levels of CPK: significant reduction
  serum levels of LDH: significant reduction
  serum levels of SGOT: significant reduction
[2]; controls 15%
  short-term mortality: 2%
[2]; controls average 7 days
  mobilisation of patients (average): 4 days
[2]; human, in vivo
  side-effects: no side-effects
  tolerability: well tolerated
[3]
  ST-segment elevation: a fall in the ST-segment elevation
[4]; dog, in vivo
  drug's tolerance during the experimental period: perfect
[4]; dog, in vivo, iv
  side-effects attributable to the drug: No side-effects
[4]; mean of 8 dogs, i.v. perfusion 7 days, placebo mean 54,1%
  infarct size % of whole area of left ventricle, planimetry, MEAN: 26,2%
[4]; mean of 8 dogs, i.v. perfusion 7 days, placebo mean 54,4%
  infarct size % of left ventricle, weight, MEAN: 27,9%
[4]; planimetry and weight analysis, p<0,001
  reduction in infarct size compared to placebo: 50 % less
Cardiac lymphatics [5]
  number of visualized lymphatics/cm^2 and equivalent left ventricular surface, comparison with Hyaluronidase and control groups: much higher
  No of lymphatics per cm^2: 5.22 ± 0.34 per cm^2
  Equivalence to ventricular surface: 20.9%
Cardiac lymphatics [6]; group I, normal dogs without MI, 360 min, untreated 1,84 ± 0,18, p <0,001
  mean points count/cm^2, LCC zone (non infarcted): 5,22 ± 0,34 points/cm^2
Cardiac lymphatics [6]; group I, normal dogs without MI, 360 min, untreated 7,2%, listed as CLS 2210, 100 mg/kg
  ventricular surface occupied by lymphatics: 20.9%
Cardiac lymphatics [6]; group I, normal dogs without MI, 360 min, untreated 7,2%, listed as CLS (ca. dobesilate), 100 mg/kg
  ventricular surface occupied by lymphatics: 20,9%
Cardiac lymphatics [6]; group I, normal dogs without myocardial infarction, 360 min, untreated 1,81 ± 0,18, p <0,001
  mean points count/cm^2, LAD zone: 5,20 ± 0,34 points/cm^2
Cardiac lymphatics [6]; group I, normal dogs, 6 h, p<0,001 vs untreated normal myocardium
  point counts, normal myocardium: 5,22±0,34 points/cm^2
Cardiac lymphatics [6]; group II, dogs with MI, 30 min, untreated 3,1%
  ventricular surface occupied by lymphatics: 9,8%
Cardiac lymphatics [6]; group II, dogs with MI, 30 min after occlusion, untreated 0,78 ± 0,07, p <0,01, listed as CLS 2210, 100 mg/kg
  mean points count/cm^2, LAD zone (infarcted): 2,43±0,06 points/cm^2
Cardiac lymphatics [6]; group II, dogs with MI, 30 min after occlusion, untreated 0,78 ± 0,07, p <0,01, listed as CLS (ca. dobesilate), 100 mg/kg
  mean points count/cm^2, LAD zone (infarcted): 2,43 ± 0,06 points/cm^2
Cardiac lymphatics [6]; group II, dogs with MI, 30 min after occlusion, untreated 1,47 ± 0,07, listed as CLS 2210, 100 mg/kg
  mean points count/cm^2, LCC zone (non infarcted): 2,75±0,22 points/cm^2
Cardiac lymphatics [6]; group II, dogs with MI, 30 min after occlusion, untreated 1,47 ± 0,07, listed as CLS (ca. dobesilate), 100 mg/kg
  mean points count/cm^2, LCC zone (non infarcted): 2,75 ± 0,22 points/cm^2
Cardiac lymphatics [6]; group III, dogs with MI, 360 min, untreated 3,2%
  ventricular surface occupied by lymphatics: 24,8%
Cardiac lymphatics [6]; group III, dogs with MI, 360 min after occlusion, untreated 0,80 ± 0,08, p <0,001, listed as CLS 2210
  mean points count/cm^2, LAD zone (infarcted): 6,15±0,18 points/cm^2
Cardiac lymphatics [6]; group III, dogs with MI, 360 min after occlusion, untreated 0,80 ± 0,08, p <0,001, listed as CLS (ca. dobesilate)
  mean points count/cm^2, LAD zone (infarcted): 6,15 ± 0,18 points/cm^2
Cardiac lymphatics [6]; group III, dogs with MI, 360 min after occlusion, untreated 2,57 ± 0,05, listed as CLS 2210, 100 mg/kg
  mean points count/cm^2, LCC zone (non infarcted): 2,45±0,13 points/cm^2
Cardiac lymphatics [6]; group III, dogs with MI, 360 min after occlusion, untreated 2,57 ± 0,05, listed as CLS (ca. dobesilate), 100 mg/kg
  mean points count/cm^2, LCC zone (non infarcted): 2,45 ± 0,13 points/cm^2
Acute toxicity study; intravenous
  LD50: 750 mg/kg
Acute toxicity study; oral
  LD50: > 4000 mg/kg
Cardiac lymphatics [7]
  most effective infused dose: 100 mg per kg body weight
Rabbit ear
  mean bleeding time of the rabbit ear: reduce

## Hyaluronidase
[8]
  ST segment elevation: reduction
  infarct size (histological planimetric measurements): decrease
  myocardial CK (creatinine-Kinase): diminution
  number of lymphatic vessels in the area of infarction: increase
[9]
  EKG signs of necrosis: attenuate
Cardiac lymphatics [5]
  No of lymphatics per cm^2: 3.45 ± 0.18 per cm^2
  Equivalence to ventricular surface: 13.8%
